Measurements from US8143293B2, “Kinase inhibitors useful for the treatment of myleoprolific diseases and other proliferative diseases” (Deciphera Pharmaceuticals, LLC, priority 2007, dated 2012).

Legend:
[1] = molecular target: T1, C-Met kinase (SEQ ID NO:10) (Homo sapiens, UniProt P08581); experiment: C-Met kinase (SEQ ID NO:10) assay, pyruvate kinase/lactate dehydrogenase coupled; settings: 0.5 h preincubation, ATP 100 μM; read-out: Biochemical IC50, c-Met Enzyme Assay
T1 construct: 956-1390, from Invitrogen, catalogue #PV3143; His6 (N-terminal leader MSYYHHHHHH... with TEV and thrombin sites) (N); purchased Invitrogen PV3143
Description: C-Met Kinase (SEQ ID NO:10) Assay
Activity of C-Met kinase (SEQ ID NO:10) was determined by following the production of ADP from the kinase reaction through coupling with the pyruvate kinase/lactate dehydrogenase system (e.g., Schindler, et al. Science (2000) 289, 1938-1942). In this assay, the oxidation of NADH (thus the decrease at A340 nm) was continuously monitored spectrophometrically. The reaction mixture (100 μl) contained C-Met (c-Met residues; 956-1390, from Invitrogen, catalogue #PV3143, […]), polyE4Y (1 mg/ml), MgCl2 (10 mM), pyruvate kinase (4 units), lactate dehydrogenase (0.7 units), phosphoenol pyruvate (1 mM), and NADH (0.28 mM) in 90 mM Tris buffer containing 0.25 mM DTT, 0.2% octyl-glucoside and 1% DMSO, pH 7.5. Test compounds were incubated with C-Met (SEQ ID NO:10) and other reaction reagents at 22° C. for 0.5 h before ATP (100 μM) was added to start the reaction. The absorption at 340 nm was monitored continuously for 2 hours at 30° C. on Polarstar Optima plate reader (BMG). The reaction rate was calculated using the 1.0 to 2.0 h time frame. Percent inhibition was obtained by comparison of reaction rate with that of a control (i.e. with no test compound). IC50 values were calculated from a series of percent inhibition values determined at a range of inhibitor concentrations using software routines as implemented in the GraphPad Prism software package.

[2] = molecular target: T2, c-Kit kinase (SEQ ID NO:9) (Homo sapiens, UniProt P10721); experiment: C-Kit kinase (SEQ ID NO:9) assay, pyruvate kinase/lactate dehydrogenase coupled; settings: <2 min preincubation, ATP 200 μM; read-out: Biochemical IC50, c-Kit Enzyme Assay
T2 construct: contained c-Kit (cKIT residues T544-V976, from ProQinase, 5.4 nM); purchased ProQinase
Description: C-Kit Kinase (SEQ ID NO:9) Assay
Activity of c-Kit kinase (SEQ ID NO:9) was determined by following the production of ADP from the kinase reaction through coupling with the pyruvate kinase/lactate dehydrogenase system (e.g., Schindler, et al. Science (2000) 289, 1938-1942). In this assay, the oxidation of NADH (thus the decrease at A340 nm) was continuously monitored spectrophometrically. The reaction mixture (100 μl) contained c-Kit (cKIT residues T544-V976, from ProQinase, 5.4 nM), polyE4Y (1 mg/ml), MgCl2 (10 mM), pyruvate kinase (4 units), lactate dehydrogenase (0.7 units), phosphoenol pyruvate (1 mM), and NADH (0.28 mM) in 90 mM Tris buffer containing 0.2% octyl-glucoside and 1% DMSO, pH 7.5. Test compounds were incubated with […] (SEQ ID NO:9) and other reaction reagents at 22° C. for <2 min before ATP (200 μM) was added to start the reaction. The absorption at 340 nm was monitored continuously for 0.5 hours at 30° C. on Polarstar Optima plate reader (BMG). The reaction rate was calculated using the 0 to 0.5 h time frame. Percent inhibition was obtained by comparison of reaction rate with that of a control (i.e. with no test compound). IC50 values were calculated from a series of percent inhibition values determined at a range of inhibitor concentrations using software routines as implemented in the GraphPad Prism software package.

[3] = molecular target: T3, BaF3 cells transfected with wild type p210 BCR-Abl (Homo sapiens, UniProt P00519); experiment: Ba/F3 p210 whole cell proliferation assay; assay type: cell-based; settings: 72 hours, Cell Titer Blue; read-out: Whole Cell Antiproliferation IC50, Ba/F3 p210 whole cell proliferation assay
T3 construct: fused on or other part: P11274 (Breakpoint cluster region protein)
Description: (§1) BaF3 cells (parental or transfected with the following: wild type p210 BCR-Abl and T315I p210 BCR-Abl was obtained from Professor Richard Van Etten (New England Medical Center, Boston, Mass.). Briefly, cells were grown in RPMI 1640 supplemented with 10% characterized fetal bovine serum (HyClone, Logan, Utah) at 37 degrees Celsius, 5% CO2, 95% humidity. Cells were allowed to expand until reaching 80% saturation at which point they were subcultured or harvested for assay use.
(§2) A serial dilution of test compound was dispensed into a 96 well black clear bottom plate (Corning, Corning, N.Y.). For each cell line, three thousand cells were added per well in complete growth medium. Plates were incubated for 72 hours at 37 degrees Celsius, 5% CO2, 95% humidity. At the end of the incubation period Cell Titer Blue (Promega, Madison, Wis.) was added to each well and an additional 4.5 hour incubation at 37 degrees Celsius, 5% CO2, 95% humidity was performed. Plates were then read on a BMG Fluostar Optima (BMG, Durham, N.C.) using an excitation of 544 nm and an emission of 612 nm. Data was analyzed using Prism software (Graphpad, San Diego, Calif.) to calculate IC50's.

[4] = molecular target: T4, Abl kinase (SEQ ID NO: 1) (Homo sapiens, UniProt P00519); experiment: Abl kinase (SEQ ID NO:1) assay, pyruvate kinase/lactate dehydrogenase coupled; settings: 2 h preincubation, ATP 500 μM; read-out: Biochemical IC50, Abl Enzyme Assay
T4 construct: purchased deCode Genetics
T4 sequence (P00519 with tags, fused parts or gaps): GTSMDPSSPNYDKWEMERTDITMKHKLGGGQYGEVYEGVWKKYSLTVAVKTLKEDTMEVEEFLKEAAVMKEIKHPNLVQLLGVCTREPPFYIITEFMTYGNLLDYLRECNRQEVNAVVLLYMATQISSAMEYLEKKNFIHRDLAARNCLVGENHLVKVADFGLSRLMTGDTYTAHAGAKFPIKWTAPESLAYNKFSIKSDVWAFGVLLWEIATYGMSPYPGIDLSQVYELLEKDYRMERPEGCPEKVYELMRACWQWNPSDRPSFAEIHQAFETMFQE
Description: Abl Kinase (SEQ ID NO:1) Assay
Activity of Abl kinase (SEQ ID NO: 1) was determined by following the production of ADP from the kinase reaction through coupling with the pyruvate kinase/lactate dehydrogenase system (e.g., Schindler, et al. Science (2000) 289, 1938-1942). In this assay, the oxidation of NADH (thus the decrease at A340 nm) was continuously monitored spectrophometrically. The reaction mixture (100 μl) contained Abl kinase (1 nM. Abl from deCode Genetics), peptide substrate (EAIYAAPFAKKK, 0.2 mM), MgCl2 (10 mM), pyruvate kinase (4 units), lactate dehydrogenase (0.7 units), phosphoenol pyruvate (1 mM), and NADH (0.28 mM) in 90 mM Tris buffer containing 0.2% octyl-glucoside and 3.5% DMSO, pH 7.5. Test compounds were incubated with Abl (SEQ ID NO:1) and other reaction reagents at 30° C. for 2 h before ATP (500 μM) was added to start the reaction. The absorption at 340 nm was monitored continuously for 2 hours at 30° C. on Polarstar Optima plate reader (BMG). The reaction rate was calculated using the 1.0 to 2.0 h time frame. Percent inhibition was obtained by comparison of reaction rate with that of a control (i.e. with no test compound). IC50 values were calculated from a series of percent inhibition values determined at a range of inhibitor concentrations using software routines as implemented in the GraphPad Prism software package.

[5] = molecular target: T5, BaF3 cells transfected with T315I p210 BCR-Abl (Homo sapiens, UniProt P00519, T315I, cells depend on it); experiment: Ba/F3 p210 T315I whole cell proliferation assay; assay type: cell-based; settings: 72 hours, Cell Titer Blue; read-out: Whole Cell Antiproliferation IC50, Ba/F3 p210 T315I whole cell proliferation assay
T5 construct: fused on or other part: P11274 (Breakpoint cluster region protein)
Description: as §1, §2

T2 sequence (P10721 with tags, fused parts or gaps): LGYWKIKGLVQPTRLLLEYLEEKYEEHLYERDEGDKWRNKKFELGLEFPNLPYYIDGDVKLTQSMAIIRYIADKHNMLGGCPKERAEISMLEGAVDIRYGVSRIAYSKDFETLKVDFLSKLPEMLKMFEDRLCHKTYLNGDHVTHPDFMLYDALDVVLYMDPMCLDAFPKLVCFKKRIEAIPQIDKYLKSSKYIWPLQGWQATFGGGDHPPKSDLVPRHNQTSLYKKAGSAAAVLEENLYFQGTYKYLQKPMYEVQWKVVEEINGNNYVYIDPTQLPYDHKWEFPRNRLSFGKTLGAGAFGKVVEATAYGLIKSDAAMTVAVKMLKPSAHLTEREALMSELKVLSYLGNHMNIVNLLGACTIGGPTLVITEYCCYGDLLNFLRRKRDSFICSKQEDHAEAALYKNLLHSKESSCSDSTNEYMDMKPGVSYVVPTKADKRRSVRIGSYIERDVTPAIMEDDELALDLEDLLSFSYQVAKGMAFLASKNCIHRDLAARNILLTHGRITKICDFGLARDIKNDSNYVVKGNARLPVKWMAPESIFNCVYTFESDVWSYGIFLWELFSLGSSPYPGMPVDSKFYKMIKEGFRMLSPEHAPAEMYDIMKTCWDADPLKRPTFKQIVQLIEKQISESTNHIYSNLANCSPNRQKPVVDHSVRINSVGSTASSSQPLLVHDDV
T1 sequence (P08581 with tags, fused parts or gaps): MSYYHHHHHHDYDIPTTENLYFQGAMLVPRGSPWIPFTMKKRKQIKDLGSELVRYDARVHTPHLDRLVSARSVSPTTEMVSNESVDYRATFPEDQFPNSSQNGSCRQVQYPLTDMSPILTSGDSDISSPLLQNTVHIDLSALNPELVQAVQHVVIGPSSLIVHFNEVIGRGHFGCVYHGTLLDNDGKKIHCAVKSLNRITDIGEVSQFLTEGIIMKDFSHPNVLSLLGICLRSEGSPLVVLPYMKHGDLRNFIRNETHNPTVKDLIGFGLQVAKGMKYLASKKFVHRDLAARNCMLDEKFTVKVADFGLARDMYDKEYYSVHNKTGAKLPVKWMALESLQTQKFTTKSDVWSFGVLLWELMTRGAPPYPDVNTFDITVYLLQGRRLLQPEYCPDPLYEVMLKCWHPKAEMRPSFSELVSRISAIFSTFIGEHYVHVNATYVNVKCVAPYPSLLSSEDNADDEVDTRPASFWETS

IC50 [1]: < 10000 nM
IC50 [2]: < 100 nM
GI50 [3]: < 100 nM
IC50 [4]: < 100 nM
GI50 [5]: < 100000 nM
Structure (SMILES): Cn1cc(-c2cc(Oc3ccc(NC(=O)Nc4noc5ccccc45)c(F)c3)ccn2)cn1 [Example 24, 1-(benzo[d]isoxazol-3-yl)-3-(2-fluoro-4-(2-(1-methyl-1H-pyrazol-4-yl)pyridin-4-yloxy)phenyl)urea]
